{"source": "patent US10670605B2", "about": "“Cysteine reactive probes and uses thereof” (The Scripps Research Institute, priority 2015, dated 2020)", "experiment_in_all_cases": "Competitive isoTOP-ABPP in situ (fragment-treated cells)", "type_in_all_cases": "cell-based", "key": {"[1]": {"molecular_target": "T1, cysteines in MDA-MB-231 and Ramos cells (Homo sapiens, UniProt Q5JPI3)", "T1 sequence (Q5JPI3 1-329)": "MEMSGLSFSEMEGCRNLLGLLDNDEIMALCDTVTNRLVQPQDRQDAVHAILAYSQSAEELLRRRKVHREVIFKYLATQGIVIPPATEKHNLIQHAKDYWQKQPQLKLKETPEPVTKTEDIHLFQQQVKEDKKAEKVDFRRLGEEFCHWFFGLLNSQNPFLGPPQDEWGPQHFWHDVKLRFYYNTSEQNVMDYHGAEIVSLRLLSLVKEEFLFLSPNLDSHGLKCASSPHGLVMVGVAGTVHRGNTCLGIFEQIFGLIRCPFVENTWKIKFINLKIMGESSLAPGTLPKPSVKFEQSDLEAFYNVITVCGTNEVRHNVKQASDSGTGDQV"}, "[2]": {"molecular_target": "cysteines in MDA-MB-231 and Ramos cells (Homo sapiens, UniProt P68366)", "sequence (P68366 whole entry)": "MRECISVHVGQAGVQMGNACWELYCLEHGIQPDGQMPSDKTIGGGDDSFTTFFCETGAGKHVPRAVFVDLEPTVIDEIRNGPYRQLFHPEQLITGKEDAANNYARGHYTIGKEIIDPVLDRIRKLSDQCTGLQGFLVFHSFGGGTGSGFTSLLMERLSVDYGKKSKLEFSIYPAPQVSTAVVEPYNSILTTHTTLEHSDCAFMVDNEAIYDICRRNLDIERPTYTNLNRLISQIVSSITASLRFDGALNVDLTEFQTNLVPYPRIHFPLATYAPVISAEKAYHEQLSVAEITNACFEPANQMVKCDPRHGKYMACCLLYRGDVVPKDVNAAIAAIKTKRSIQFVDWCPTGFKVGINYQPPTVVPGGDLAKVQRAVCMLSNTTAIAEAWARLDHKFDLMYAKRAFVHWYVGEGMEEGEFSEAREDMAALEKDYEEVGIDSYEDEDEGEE"}, "[3]": {"molecular_target": "T2, cysteines in MDA-MB-231 and Ramos cells (Homo sapiens, UniProt P51649)", "T2 sequence (P51649 48-535)": "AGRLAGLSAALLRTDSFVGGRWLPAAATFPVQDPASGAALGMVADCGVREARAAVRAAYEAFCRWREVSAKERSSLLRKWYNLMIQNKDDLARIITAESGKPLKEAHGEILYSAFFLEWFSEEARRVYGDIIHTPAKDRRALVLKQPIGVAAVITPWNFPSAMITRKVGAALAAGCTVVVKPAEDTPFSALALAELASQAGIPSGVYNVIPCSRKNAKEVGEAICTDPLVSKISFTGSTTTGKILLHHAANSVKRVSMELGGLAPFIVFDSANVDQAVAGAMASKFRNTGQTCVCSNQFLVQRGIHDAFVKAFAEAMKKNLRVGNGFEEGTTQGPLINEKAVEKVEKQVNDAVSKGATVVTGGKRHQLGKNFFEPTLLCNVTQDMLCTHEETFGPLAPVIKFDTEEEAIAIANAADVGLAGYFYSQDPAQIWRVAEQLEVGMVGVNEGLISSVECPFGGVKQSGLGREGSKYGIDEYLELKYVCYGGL"}, "[4]": {"molecular_target": "cysteines in MDA-MB-231 and Ramos cells (Homo sapiens, UniProt Q14137)", "sequence (Q14137 whole entry)": "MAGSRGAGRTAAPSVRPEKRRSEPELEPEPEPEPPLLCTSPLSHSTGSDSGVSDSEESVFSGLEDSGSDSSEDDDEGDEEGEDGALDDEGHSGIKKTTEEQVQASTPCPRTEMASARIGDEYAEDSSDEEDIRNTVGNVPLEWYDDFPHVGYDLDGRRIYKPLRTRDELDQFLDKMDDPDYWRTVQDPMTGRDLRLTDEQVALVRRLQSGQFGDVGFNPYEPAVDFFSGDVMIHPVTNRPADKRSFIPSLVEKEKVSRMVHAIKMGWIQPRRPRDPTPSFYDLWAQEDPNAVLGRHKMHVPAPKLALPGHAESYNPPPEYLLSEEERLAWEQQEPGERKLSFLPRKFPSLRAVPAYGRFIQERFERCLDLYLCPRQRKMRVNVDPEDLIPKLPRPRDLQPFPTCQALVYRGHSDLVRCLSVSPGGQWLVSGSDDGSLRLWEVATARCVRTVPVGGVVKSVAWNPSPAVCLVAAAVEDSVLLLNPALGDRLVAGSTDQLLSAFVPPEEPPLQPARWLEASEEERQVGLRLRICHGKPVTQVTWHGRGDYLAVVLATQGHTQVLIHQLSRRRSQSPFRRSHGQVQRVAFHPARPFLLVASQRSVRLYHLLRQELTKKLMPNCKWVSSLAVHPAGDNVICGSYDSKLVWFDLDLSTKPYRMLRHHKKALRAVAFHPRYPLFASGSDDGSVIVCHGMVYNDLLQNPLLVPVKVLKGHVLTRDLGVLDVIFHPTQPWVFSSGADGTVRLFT"}, "[5]": {"molecular_target": "T3, cysteines in MDA-MB-231 and Ramos cells (Homo sapiens, UniProt Q9NTX5)", "T3 sequence (Q9NTX5 1-307)": "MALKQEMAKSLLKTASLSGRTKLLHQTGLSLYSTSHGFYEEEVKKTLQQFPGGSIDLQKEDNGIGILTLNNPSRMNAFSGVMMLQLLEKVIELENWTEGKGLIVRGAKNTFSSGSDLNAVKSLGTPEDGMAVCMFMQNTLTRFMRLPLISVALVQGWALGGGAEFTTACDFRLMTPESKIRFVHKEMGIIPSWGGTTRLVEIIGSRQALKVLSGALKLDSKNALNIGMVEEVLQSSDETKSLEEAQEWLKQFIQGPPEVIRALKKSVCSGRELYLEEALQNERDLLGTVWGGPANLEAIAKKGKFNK"}, "[6]": {"molecular_target": "T4, cysteines in MDA-MB-231 and Ramos cells (Homo sapiens, UniProt A0AVT1)", "T4 sequence (A0AVT1 1-1052)": "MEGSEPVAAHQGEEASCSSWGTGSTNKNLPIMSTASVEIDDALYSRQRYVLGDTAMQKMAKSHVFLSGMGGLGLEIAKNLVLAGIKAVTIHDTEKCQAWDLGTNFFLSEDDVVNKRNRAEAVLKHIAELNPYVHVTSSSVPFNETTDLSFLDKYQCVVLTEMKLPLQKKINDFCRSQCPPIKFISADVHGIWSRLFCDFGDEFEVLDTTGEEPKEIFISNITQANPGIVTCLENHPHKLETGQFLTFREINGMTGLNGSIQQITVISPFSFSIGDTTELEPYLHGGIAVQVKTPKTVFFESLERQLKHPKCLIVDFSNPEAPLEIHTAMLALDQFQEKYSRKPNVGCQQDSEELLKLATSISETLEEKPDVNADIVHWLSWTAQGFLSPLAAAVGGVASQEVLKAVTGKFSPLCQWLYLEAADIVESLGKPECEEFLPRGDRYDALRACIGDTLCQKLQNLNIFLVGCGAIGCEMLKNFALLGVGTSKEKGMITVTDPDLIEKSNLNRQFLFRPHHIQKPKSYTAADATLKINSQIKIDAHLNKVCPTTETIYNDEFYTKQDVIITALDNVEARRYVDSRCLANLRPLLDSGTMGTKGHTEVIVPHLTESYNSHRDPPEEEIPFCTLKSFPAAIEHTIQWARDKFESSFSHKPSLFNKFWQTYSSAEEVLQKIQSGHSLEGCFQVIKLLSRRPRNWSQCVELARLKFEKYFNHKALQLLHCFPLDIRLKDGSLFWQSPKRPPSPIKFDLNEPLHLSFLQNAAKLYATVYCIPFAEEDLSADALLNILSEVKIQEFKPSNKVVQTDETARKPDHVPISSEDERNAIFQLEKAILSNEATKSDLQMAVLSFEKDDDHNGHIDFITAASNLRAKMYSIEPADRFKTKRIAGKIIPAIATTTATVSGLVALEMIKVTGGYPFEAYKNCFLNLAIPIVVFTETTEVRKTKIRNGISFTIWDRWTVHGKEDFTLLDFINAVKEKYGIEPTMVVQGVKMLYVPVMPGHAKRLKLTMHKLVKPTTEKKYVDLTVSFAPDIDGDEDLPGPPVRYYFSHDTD"}, "[7]": {"molecular_target": "cysteines in MDA-MB-231 and Ramos cells (Homo sapiens, UniProt Q9UNI6)", "sequence (Q9UNI6 whole entry)": "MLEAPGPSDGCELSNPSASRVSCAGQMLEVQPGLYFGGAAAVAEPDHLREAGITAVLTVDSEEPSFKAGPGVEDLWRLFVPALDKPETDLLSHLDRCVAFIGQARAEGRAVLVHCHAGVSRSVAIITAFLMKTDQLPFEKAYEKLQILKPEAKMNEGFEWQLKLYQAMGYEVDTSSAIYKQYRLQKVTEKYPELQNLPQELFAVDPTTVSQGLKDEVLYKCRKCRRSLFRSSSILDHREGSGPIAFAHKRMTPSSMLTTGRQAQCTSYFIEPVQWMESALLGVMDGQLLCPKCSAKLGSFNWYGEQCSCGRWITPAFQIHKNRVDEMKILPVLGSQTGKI", "settings": "for isoTOP-ABPP ratio, cysteine Q9UNI6_C265: 200 μM, insitu, 231"}, "[8]": {"molecular_target": "cysteines in MDA-MB-231 and Ramos cells (Homo sapiens, UniProt Q96N67)", "sequence (Q96N67 whole entry)": "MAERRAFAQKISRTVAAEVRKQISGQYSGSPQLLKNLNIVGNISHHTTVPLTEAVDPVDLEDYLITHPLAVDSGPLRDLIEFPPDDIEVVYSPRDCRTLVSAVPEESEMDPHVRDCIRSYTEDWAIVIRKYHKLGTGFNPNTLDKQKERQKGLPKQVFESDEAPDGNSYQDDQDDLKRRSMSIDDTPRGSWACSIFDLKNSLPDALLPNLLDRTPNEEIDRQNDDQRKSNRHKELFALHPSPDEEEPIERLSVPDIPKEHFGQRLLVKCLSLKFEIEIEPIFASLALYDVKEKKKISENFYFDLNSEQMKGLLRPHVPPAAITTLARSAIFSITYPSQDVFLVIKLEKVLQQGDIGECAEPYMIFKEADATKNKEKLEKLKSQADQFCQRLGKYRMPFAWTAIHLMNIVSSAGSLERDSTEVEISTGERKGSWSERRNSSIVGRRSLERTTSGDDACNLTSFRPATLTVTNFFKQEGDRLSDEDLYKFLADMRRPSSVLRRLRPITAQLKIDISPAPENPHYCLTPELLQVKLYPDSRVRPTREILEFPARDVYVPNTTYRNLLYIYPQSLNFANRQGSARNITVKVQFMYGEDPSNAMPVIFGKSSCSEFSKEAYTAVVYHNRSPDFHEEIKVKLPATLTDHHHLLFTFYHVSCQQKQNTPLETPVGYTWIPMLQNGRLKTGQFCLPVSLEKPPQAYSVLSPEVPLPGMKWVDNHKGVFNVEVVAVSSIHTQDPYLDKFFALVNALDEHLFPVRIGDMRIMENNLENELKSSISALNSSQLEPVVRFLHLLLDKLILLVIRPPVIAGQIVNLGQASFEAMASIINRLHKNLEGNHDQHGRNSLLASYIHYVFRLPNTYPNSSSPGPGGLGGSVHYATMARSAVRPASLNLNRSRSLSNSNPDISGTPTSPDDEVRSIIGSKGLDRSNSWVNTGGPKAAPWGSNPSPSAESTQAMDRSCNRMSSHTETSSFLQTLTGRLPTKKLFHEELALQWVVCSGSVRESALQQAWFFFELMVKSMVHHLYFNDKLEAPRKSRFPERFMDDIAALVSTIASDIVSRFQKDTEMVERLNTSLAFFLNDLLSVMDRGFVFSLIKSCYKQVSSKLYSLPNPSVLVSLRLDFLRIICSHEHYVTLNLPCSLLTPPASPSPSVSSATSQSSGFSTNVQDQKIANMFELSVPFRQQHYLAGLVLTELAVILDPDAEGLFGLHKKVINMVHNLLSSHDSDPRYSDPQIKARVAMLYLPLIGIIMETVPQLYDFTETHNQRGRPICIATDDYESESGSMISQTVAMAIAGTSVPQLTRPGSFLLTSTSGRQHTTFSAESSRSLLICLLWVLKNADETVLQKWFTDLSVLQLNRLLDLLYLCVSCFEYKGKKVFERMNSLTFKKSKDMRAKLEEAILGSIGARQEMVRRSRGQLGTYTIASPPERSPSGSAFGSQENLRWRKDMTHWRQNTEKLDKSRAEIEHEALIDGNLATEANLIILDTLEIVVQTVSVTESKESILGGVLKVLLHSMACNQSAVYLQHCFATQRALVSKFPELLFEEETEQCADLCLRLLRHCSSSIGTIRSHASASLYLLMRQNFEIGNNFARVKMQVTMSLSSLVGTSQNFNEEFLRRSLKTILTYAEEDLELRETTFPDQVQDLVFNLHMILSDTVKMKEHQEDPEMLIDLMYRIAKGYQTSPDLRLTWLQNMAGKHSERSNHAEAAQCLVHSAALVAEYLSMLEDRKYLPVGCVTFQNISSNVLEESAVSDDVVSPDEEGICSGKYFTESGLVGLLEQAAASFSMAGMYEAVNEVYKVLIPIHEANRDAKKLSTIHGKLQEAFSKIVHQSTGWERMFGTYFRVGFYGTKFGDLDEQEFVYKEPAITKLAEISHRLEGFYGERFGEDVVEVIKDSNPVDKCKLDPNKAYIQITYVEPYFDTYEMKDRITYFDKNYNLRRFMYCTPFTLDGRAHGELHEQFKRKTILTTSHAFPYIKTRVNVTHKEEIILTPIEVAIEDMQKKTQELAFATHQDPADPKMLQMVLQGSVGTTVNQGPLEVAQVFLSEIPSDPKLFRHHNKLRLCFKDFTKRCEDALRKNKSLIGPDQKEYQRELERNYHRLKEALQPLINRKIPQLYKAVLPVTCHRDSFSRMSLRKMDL"}, "[9]": {"molecular_target": "cysteines in MDA-MB-231 and Ramos cells (Homo sapiens, UniProt P45984)", "sequence (P45984 whole entry)": "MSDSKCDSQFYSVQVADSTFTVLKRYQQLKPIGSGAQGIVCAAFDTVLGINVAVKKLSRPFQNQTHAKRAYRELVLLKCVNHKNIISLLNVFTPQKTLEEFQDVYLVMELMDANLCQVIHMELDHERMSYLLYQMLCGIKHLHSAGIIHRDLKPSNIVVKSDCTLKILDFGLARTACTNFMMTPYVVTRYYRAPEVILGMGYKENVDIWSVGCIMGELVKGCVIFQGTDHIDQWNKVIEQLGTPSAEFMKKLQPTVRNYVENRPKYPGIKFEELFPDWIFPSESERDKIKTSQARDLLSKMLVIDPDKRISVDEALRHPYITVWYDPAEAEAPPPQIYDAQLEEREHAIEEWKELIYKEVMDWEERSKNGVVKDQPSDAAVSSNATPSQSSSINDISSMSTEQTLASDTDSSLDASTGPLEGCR"}}, "data": [{"molecule": "COc1ccc2c(c1)CCCN2C(=O)CCl", "note": "[compound 2]", "values": [{"measurement": "isoTOP-ABPP reactivity Q5JPI3_C308 C3orf38", "setting": "[1]; 200 μM, insitu, 231", "value": 2.9}, {"measurement": "isoTOP-ABPP reactivity P68366_C54 TUBA4A", "setting": "[2]; 200 μM, insitu, 231", "value": 9.7}, {"measurement": "isoTOP-ABPP reactivity P51649_C340 ALDH5A1", "setting": "[3]; 200 μM, insitu, 231", "value": 1.9}, {"measurement": "isoTOP-ABPP reactivity Q14137_C404 BOP1", "setting": "[4]; 200 μM, insitu, 231", "value": 20.0}, {"measurement": "isoTOP-ABPP reactivity Q9NTX5_C133 ECHDC1", "setting": "[5]; 200 μM, insitu, 231", "value": 1.5}]}, {"molecule": "COc1ccc(C2CC(c3cccs3)=NN2C(=O)CCl)cc1", "note": "(stereo not drawn) [compound 4]", "values": [{"measurement": "isoTOP-ABPP reactivity A0AVT1_C347 UBA6", "setting": "[6]; 100 μM in situ 231", "value": 20.0}, {"measurement": "isoTOP-ABPP reactivity P68366_C54 TUBA4A", "setting": "[2]; 100 μM in situ 231", "value": 0.8}, {"measurement": "isoTOP-ABPP reactivity P51649_C340 ALDH5A1", "setting": "[3]; 100 μM in situ 231", "value": 1.0}, {"measurement": "isoTOP-ABPP reactivity Q14137_C404 BOP1", "setting": "[4]; 100 μM in situ 231", "value": 1.2}, {"measurement": "isoTOP-ABPP reactivity Q9UNI6_C265 DUSP12", "setting": "[7]; 100 μM in situ 231", "value": 0.8}, {"measurement": "isoTOP-ABPP reactivity Q9NTX5_C133 ECHDC1", "setting": "[5]; 100 μM in situ 231", "value": 1.7}, {"measurement": "isoTOP-ABPP reactivity Q96N67_C2125 DOCK7", "setting": "[8]; 100 μM in situ 231", "value": 4.1}, {"measurement": "isoTOP-ABPP reactivity P45984_C177 MAPK9", "setting": "[9]; 100 μM in situ 231", "value": 12.0}]}, {"molecule": "COc1cc2c(cc1OC)CN(C(=O)CCl)CC2", "note": "[compound 8]", "values": [{"measurement": "isoTOP-ABPP reactivity P68366_C54 TUBA4A", "setting": "[2]; 200 μM, insitu, 231", "value": 0.9}, {"measurement": "isoTOP-ABPP reactivity P51649_C340 ALDH5A1", "setting": "[3]; 200 μM, insitu, 231", "value": 2.7}, {"measurement": "isoTOP-ABPP reactivity Q9NTX5_C133 ECHDC1", "setting": "[5]; 200 μM, insitu, 231", "value": 2.0}, {"measurement": "isoTOP-ABPP reactivity Q96N67_C2125 DOCK7", "setting": "[8]; 200 μM, insitu, 231", "value": 5.4}, {"measurement": "isoTOP-ABPP reactivity P45984_C177 MAPK9", "setting": "[9]; 200 μM, insitu, 231", "value": 20.0}]}, {"molecule": "O=C(CCl)N1CCC(Cc2ccccc2)CC1", "note": "[compound 9]", "values": [{"measurement": "isoTOP-ABPP reactivity A0AVT1_C347 UBA6", "setting": "[6]; 200 μM, insitu, 231", "value": 3.3}]}, {"molecule": "O=C(CCl)N1CCN(S(=O)(=O)c2ccccc2F)CC1", "note": "[compound 10]", "values": [{"measurement": "isoTOP-ABPP ratio, cysteine A0AVT1_C347", "setting": "[6]; 200 μM, insitu, ramos", "value": 20.0}, {"measurement": "isoTOP-ABPP ratio P68366_C54", "setting": "[2]; 200 μM, insitu, 231", "value": 7.9}, {"measurement": "isoTOP-ABPP ratio P68366_C54", "setting": "[2]; 200 μM, insitu, ramos", "value": 2.8}, {"measurement": "isoTOP-ABPP ratio P51649_C340", "setting": "[3]; 200 μM, insitu, 231", "value": 13.4}, {"measurement": "isoTOP-ABPP ratio P51649_C340", "setting": "[3]; 200 μM, insitu, ramos", "value": 20.0}, {"measurement": "isoTOP-ABPP ratio, cysteine Q14137_C404", "setting": "[4]; 200 μM, insitu, 231", "value": 20.0}, {"measurement": "isoTOP-ABPP ratio, cysteine Q9UNI6_C265", "setting": "[7]", "value": 1.2}, {"measurement": "isoTOP-ABPP ratio Q9NTX5_C133", "setting": "[5]; 200 μM, insitu, 231", "value": 1.6}, {"measurement": "isoTOP-ABPP ratio P45984_C177", "setting": "[9]; 200 μM, insitu, 231", "value": 20.0}]}, {"molecule": "Cn1cc(S(=O)(=O)N2CCOCC2)cc1C(=O)NC(=O)CCl", "note": "[compound 11]", "values": [{"measurement": "isoTOP-ABPP ratio, cysteine A0AVT1_C347", "setting": "[6]; 100 μM in situ 231", "value": 1.6}, {"measurement": "isoTOP-ABPP ratio, cysteine Q5JPI3_C308", "setting": "[1]; 100 μM in situ 231", "value": 1.0}, {"measurement": "isoTOP-ABPP ratio P68366_C54", "setting": "[2]; 100 μM in situ 231", "value": 0.3}, {"measurement": "isoTOP-ABPP ratio Q9NTX5_C133", "setting": "[5]; 100 μM in situ 231", "value": 1.0}, {"measurement": "isoTOP-ABPP ratio P45984_C177", "setting": "[9]; 100 μM in situ 231", "value": 0.9}]}, {"molecule": "O=C(CCl)NC(=O)NC12CC3CC(CC(C3)C1)C2", "note": "[compound 12]", "values": [{"measurement": "isoTOP-ABPP ratio P51649_C340", "setting": "[3]; 200 μM, insitu, 231", "value": 20.0}, {"measurement": "isoTOP-ABPP ratio, cysteine Q9UNI6_C265", "setting": "[7]", "value": 1.2}, {"measurement": "isoTOP-ABPP ratio Q9NTX5_C133", "setting": "[5]; 200 μM, insitu, 231", "value": 1.2}, {"measurement": "isoTOP-ABPP ratio P45984_C177", "setting": "[9]; 200 μM, insitu, 231", "value": 2.1}]}, {"molecule": "O=C(CCl)NCCc1c[nH]c2ccccc12", "note": "[compound 13]", "values": [{"measurement": "isoTOP-ABPP ratio, cysteine A0AVT1_C347", "setting": "[6]; 200 μM, insitu, 231", "value": 1.3}, {"measurement": "isoTOP-ABPP ratio, cysteine Q5JPI3_C308", "setting": "[1]; 200 μM, insitu, 231", "value": 1.1}, {"measurement": "isoTOP-ABPP ratio, cysteine Q5JPI3_C308", "setting": "[1]; 200 μM, insitu, ramos", "value": 1.7}, {"measurement": "isoTOP-ABPP ratio P68366_C54", "setting": "[2]; 200 μM, insitu, ramos", "value": 1.3}, {"measurement": "isoTOP-ABPP ratio P51649_C340", "setting": "[3]; 200 μM, insitu, 231", "value": 1.1}, {"measurement": "isoTOP-ABPP ratio P51649_C340", "setting": "[3]; 200 μM, insitu, ramos", "value": 1.3}, {"measurement": "isoTOP-ABPP ratio, cysteine Q14137_C404", "setting": "[4]; 200 μM, insitu, 231", "value": 1.1}, {"measurement": "isoTOP-ABPP ratio Q9NTX5_C133", "setting": "[5]; 200 μM, insitu, 231", "value": 1.1}]}]}
